Laboratory results published in ChEMBL document CHEMBL3507680, “University of Dundee, Gates Library screen for HepG2 cell viability”.

assay: Human HepG2 cell viability assay in 384 well format; type: toxicity, cell-based; design: dose 125 nL, time 70.5 hour; concentration not given beside the values; settings: HepG2 cells, read-out: Inhibition

SMILES | cytotoxicity at 70.5 h
CN1CCO[C@@H]2CN(C(=O)COc3cccc(Cl)c3)C[C@@H]2C1 | 4.28%
CN1C[C@@H](COCC2CC2)[C@H]2CCN(Cc3ccco3)CC[C@H]2C1=O | -5.7%
CN(C)C(=O)N1CC[C@H]2[C@H]1CCN2c1nncs1 | -6.13%
CCOCC(=O)N1CCc2c(CN(C)C)nn(C(C)C)c2C1 | -4.01%
COC[C@H]1CN(CC2CC2)C(=O)[C@@H]2CCN(Cc3ccoc3)CC[C@H]12 | -4.84%
CN(C)Cc1cnc2n1CCN(C(=O)Cc1ccc(F)cc1)CC2 | -1.54%
O=S1(=O)NCC2(CCN(c3ncccn3)CC2)COc2ccccc21 | 47.5%
O=C(CC1CCCC1)N1CC[C@H]2[C@H]1CCN2c1nncs1 | 19.9%
O=S(=O)(C1CC1)N1CCc2onc(COc3ccccn3)c2C1 | 34.6%
Cc1cccc(N2CCC3(CCCC(=O)N3)CC2)n1 | -0.82%
Cc1ccc(N2CCCC3(CCCC(=O)N3)C2)nn1 (centres undefined) | -5.66%
Cc1cnc(N2CCN(C)c3ncccc3C2)nc1 | 4.51%
COCC1CN(S(=O)(=O)c2ccc(C)cc2)Cc2c1cnn2C (centres undefined) | 7.58%
c1cc(C2CC2)n2cnc(C3CN(Cc4nccs4)CCO3)c2c1 (centres undefined) | -1.41%
COCC1CN(S(=O)(=O)Cc2ccccc2)Cc2c1cnn2C (centres undefined) | -1.14%
CCS(=O)(=O)N1CCc2onc(COc3ccccn3)c2C1 | -3.32%
c1nc2c(c(NC3CCC3)n1)CCNCC2 | -2.44%
COCC1CN(C(=O)COc2ccccc2)Cc2ncn(C)c21 (centres undefined) | -0.249%
c1ccc(OCc2noc3c2CN(c2ncccn2)CC3)nc1 | -6.14%
Cc1ccc2c(n1)N(C)CCN(C(=O)NC(C)C)C2 | -6.1%
O=C(N[C@@H]1CN(Cc2cccs2)[C@@H]2CCCO[C@@H]21)c1cscn1 | -9.16%
CS(=O)(=O)N1CC[C@H]2O[C@H](C(=O)NCCc3ccccn3)CC[C@H]21 | -9.62%
CCN(C)c1ncnc2c1CCN(C(=O)N(C)C)CC2 | 0.982%
CN1CCC2(C=C(C(=O)N3CCCC3)c3ccccc32)CC1 | 1.49%
O=C(Nc1ccccc1)C1CN(CC2CCOCC2)CC12CCOCC2 (centres undefined) | 9.8%
O=C(NCc1ccco1)[C@@H]1CC[C@@H]2[C@@H](CCN2CC2CC2)O1 | -6.24%
O=C(c1cnccn1)N1CCN2C[C@H](OCc3ccccc3)C[C@H]2C1 | -1.37%

SMILES | cytotoxicity at 70.5 h
CN1CCC2(COCc3cnc(-c4ccccc4)nc32)C1 (centres undefined) | -6.86%
CCN(C)c1ncnc2c1CCN(C(=O)COC)CC2 | -10.8%
O=C(NCc1cccs1)c1nc2c(o1)CN(CC1CC1)C2 | -9.19%
CN(C)C(=O)NC[C@@H]1OC[C@H]2CN(Cc3cccc(F)c3)CC[C@H]21 | -6.1%
CCOCC1CN(S(=O)(=O)N(C)C)Cc2cnn(CC)c21 (centres undefined) | -8.84%
Cc1nc(CN2Cc3nccn3CC(COCC3CC3)C2)cs1 (centres undefined) | -0.0625%
CS(=O)(=O)N1Cc2cnn(CC3CC3)c2C(COCC2CC2)C1 (centres undefined) | -6.21%
COCCN1CCC2(COCc3cnc(N(C)C)nc32)C1 (centres undefined) | -2.9%
Cc1ccc(CN2CCOC3(COCCN(S(C)(=O)=O)C3)C2)o1 (centres undefined) | -5.62%
CCOCCCNC(=O)c1nc2c(s1)CCCN2c1ccc(C)nn1 | -7.8%
CN(C)C(=O)N1Cc2nnn(C)c2C(COCc2cccnc2)C1 (centres undefined) | -2.6%
CCN1CCCC12CCN(Cc1cccnc1OC)CC2 | -4.58%
c1ccc(CO[C@@H]2C[C@H]3CN(c4ncccn4)CCN3C2)nc1 | -7.06%
COCCN1CCO[C@@H]2CN(Cc3ccccc3OC)C[C@@H]2C1 | -0.773%
COCCN1CCC2(CC1)CC(NCc1cncn1C)c1ccccc12 (centres undefined) | 1.8%
O=C(NC1CC2(CCN(CCO)CC2)c2ccccc21)c1ccncc1 (centres undefined) | -5.59%
COCCN1CCO[C@@H]2CN(Cc3ccc(C)s3)C[C@@H]2C1 | -2.59%
O=C(N[C@H]1CN(Cc2cccs2)[C@@H]2CCCO[C@H]12)c1cccnc1 | -18.4%
CCc1cnc(N2CC[C@H]3[C@H]2CC(=O)N3c2cccnc2)nc1 | -10%
O=C(NCCc1ccncc1)[C@H]1CC[C@@H]2[C@@H](CCN2CC2CC2)O1 | -10.8%
O=C(NCCc1ccncc1)[C@@H]1CC[C@@H]2[C@@H](CCN2Cc2ccco2)O1 | -9.71%
Cc1nnc(N2C[C@@H](Oc3ccccn3)[C@H]3OCCC[C@H]32)s1 | -4.15%
O=C(c1ccc[nH]1)N1CCc2c(COCc3ccncc3)cncc2C1 | -3.15%
CCN(CC)CC1CN(Cc2nccs2)Cc2nccn2C1 (centres undefined) | -9.42%
Cc1nnc(N2C[C@H](OCc3cccnc3)[C@H]3OCCC[C@H]32)s1 | 10%
Cn1cc(CNC2CC3(CCN(CC4CC4)CC3)c3ccccc32)cn1 (centres undefined) | -2.11%
c1coc(CN2CCOC3(COCCN(Cc4ccncc4)C3)C2)c1 (centres undefined) | -3.4%
